Converted amounts (≈) assume the structure as drawn. Where a name gives a salt, the structure may show the parent alone.
Tests used:
Pseud. aeruginosa EP-067 = assay: Antibacterial activity (MIC), Pseud. aeruginosa EP-067; assay type: cell-based; conditions: Pseudomonas aeruginosa
Excerpt: (§1) Tables 1 and 2 show the antibacterial activity (MIC, μg/mL) of the compounds of this invention.

Kleb. pneumoniae EK-6 = assay: Antibacterial activity (MIC), Kleb. pneumoniae EK-6; assay type: cell-based; conditions: Klebsiella pneumoniae
Excerpt: as §1

Pseud. aeruginosa EP-071 = assay: Antibacterial activity (MIC), Pseud. aeruginosa EP-071; assay type: cell-based; conditions: Pseudomonas aeruginosa
Excerpt: as §1

Pseud. aeruginosa EP-069 = assay: Antibacterial activity (MIC), Pseud. aeruginosa EP-069; assay type: cell-based; conditions: Pseudomonas aeruginosa
Excerpt: as §1

Pseud. aeruginosa = conditions: in words; cited from earlier work
[1] = Acute toxicity LD50 (mouse, oral); conditions: in vivo
Excerpt: The acute toxicity values [LD50 (mouse, oral)] of the compounds of this invention are higher than 4 g/kg in the case of 7β-[D-2-(6,7-dihydroxy-4-oxo-4H-1-benzothiopyran-3-carboxamide)-2-(4- hydroxyphenyl)acetamide]-3-(1-carboxymethyl-5-tetrazolyl)thiomethyl-3-cephem-4-carboxylic acid and 7β-[D-2-(6,7-diacetoxy-1-ethyl-1,4-dihydro-4-oxoquinoline-3-carboxamide)-2-(4-hydroxyphenyl)acetamide]-3-(1-carboxymethyl-5-tetrazolyl)thiomethyl-3-cephem-4-carboxylic acid, as well as 7β-[D-2-(6,7-dihydroxy-2-oxo-2H-1-benzopyran-3-carboxamide)-2-(4-hydroxyphenyl)acetamide]-3-(1-carboxymethyl-5-tetrazolyl)thiomethyl-3-cephem-4-carboxylic acid and 7β-[D-2-(6,7-dihydroxy-2-oxo-2H-1-benzothiopyran-3-carboxamide)-2-(4- hydroxyphenyl)acetamide]-3-(1-carboxymethyl-5-tetrazolyl)thiomethyl-3-cephem-4-carboxylic acid.

Kleb. pneumoniae = conditions: in words; cited from earlier work

Structure (SMILES)	MIC (Pseud. aeruginosa EP-067; EP067, Table 1) [µg/mL]	MIC (Kleb. pneumoniae EK-6; EK6, Table 1) [µg/mL]	MIC (Pseud. aeruginosa EP-071; EP071, Table 1) [µg/mL]	MIC (Pseud. aeruginosa EP-069; EP069, Table 1) [µg/mL]	MIC (Pseud. aeruginosa EP-067; EP067, Table 2) [µg/mL]	MIC (Kleb. pneumoniae EK-6; EK6, Table 2) [µg/mL]	MIC (Pseud. aeruginosa EP-071; EP071, Table 2) [µg/mL]	MIC (Pseud. aeruginosa EP-069; EP069, Table 2) [µg/mL]	antibacterial activity according to the known literature (Pseud. aeruginosa)	LD50 [1] [mg/kg]	antibacterial activity according to the known literature (Kleb. pneumoniae)
CO[C@@]1(NC(=O)[C@H](NC(=O)c2csc3cc(OC(C)=O)c(OC(C)=O)cc3c2=O)c2ccc(O)cc2)C(=O)N2C(C(=O)O)=C(COC(C)=O)CS[C@@H]21 [Example 11, 7β-[D-2-(6,7-Diacetoxy-4-oxo-4H-1-benzothiopyran-3-carboxamide)-2-(4-hydroxyphenyl)acetamide]-7α-methoxy-3-acetoxymethyl-3-cephem-4-carboxylic acid]	3.13 (≈ 4.14 µM)	0.024 (≈ 0.0318 µM)	0.2 (≈ 0.265 µM)	3.13 (≈ 4.14 µM)							
CCn1cc(C(=O)N[C@@H](C(=O)N[C@@H]2C(=O)N3C(C(=O)O)=C(CSc4nnc(C)s4)CS[C@H]23)c2ccc(O)cc2)c(=O)c2cc(O)c(O)cc21 [Example 6, 7β-[D-2-(6,7-Dihydroxy-1-ethyl-1,4-dihydro-4-oxoquinoline-3-carboxamide)-2-(4-hydroxyphenyl)acetamide]-3-[5-methyl-2-(1,3,4-thiadiazolyl)]thiomethyl-3-cephem-4-carboxylic acid]	3.13 (≈ 4.32 µM)	0.05 (≈ 0.069 µM)	0.2 (≈ 0.276 µM)	3.13 (≈ 4.32 µM)							
CCn1cc(C(=O)N[C@@H](C(=O)N[C@@H]2C(=O)N3[C@@H]2SC(C)(C)[C@@H]3C(=O)O)c2ccccc2)c(=O)c2cc(OC(C)=O)c(OC(C)=O)cc21 [Example 2, 6β-[D-2-(6,7-Diacetoxy-1-ethyl-1,4-dihydro-4-oxoquinoline-3-carboxamide)-2-phenylacetamide]penicillanic acid]	1.56 (≈ 2.35 µM)	0.2 (≈ 0.301 µM)	0.1 (≈ 0.15 µM)	3.13 (≈ 4.71 µM)							
CC(=O)Oc1cc2cc(C(=O)N[C@@H](C(=O)N[C@@H]3C(=O)N4[C@@H]3SC(C)(C)[C@@H]4C(=O)O)c3ccccc3)c(=O)sc2cc1OC(C)=O [Example 28, 6β-[D-2-(6,7-Diacetoxy-2-oxo-2H-1-benzothiopyran-3-carboxamide)-2-phenylacetamide]penicillanic acid]					1.56 (≈ 2.39 µM)	0.1 (≈ 0.153 µM)	0.1 (≈ 0.153 µM)	3.13 (≈ 4.79 µM)			
CC1(C)S[C@@H]2[C@H](NC(=O)[C@H](NC(=O)c3cnc4cccnc4c3O)c3ccccc3)C(=O)N2[C@H]1C(=O)O [D(-)-α-(4-hydroxy-1,5-naphthyridine-3-carboxamide)benzylpenicillin, reference compound]	12.5 (≈ 24 µM)	3.13 (≈ 6 µM)	0.8 (≈ 1.53 µM)	12.5 (≈ 24 µM)					highest antibacterial activity		
CCn1cc(C(=O)N[C@@H](C(=O)N[C@@H]2C(=O)N3C(C(=O)O)=C(CSc4nnnn4CC(=O)O)CS[C@H]23)c2ccc(O)cc2)c(=O)c2cc(OC(C)=O)c(OC(C)=O)cc21 [Example 5, 7β-[D-2-(6,7-Diacetoxy-1-ethyl-1,4-dihydro-4-oxoquinoline-3-carboxamide)-2-(4-hydroxyphenyl)acetamide]-3-(1-carboxymethyl-5-tetrazolyl)thiomethyl-3-cephem-4-carboxylic acid]	3.13 (≈ 3.74 µM)	0.024 (≈ 0.0287 µM)	0.2 (≈ 0.239 µM)	3.13 (≈ 3.74 µM)						> 4000	
O=C(O)Cn1nnnc1SCC1=C(C(=O)O)N2C(=O)[C@@H](NC(=O)[C@H](NC(=O)c3cc4ccc(O)c(O)c4oc3=O)c3ccc(O)cc3)[C@H]2SC1 [Example 27, 7β-[D-(7,8-Dihydroxy-2-oxo-2H-1-benzopyran-3-carboxamide)-2-(4-hydroxyphenyl)acetamide]-3-(1-carboxymethyl-5-tetrazolyl)thiomethyl-3-cephem-4-carboxylic acid]					1.56 (≈ 2.15 µM)	≤ 0.012	0.1 (≈ 0.138 µM)	1.56 (≈ 2.15 µM)			
O=C(O)Cn1nnnc1SCC1=C(C(=O)O)N2C(=O)[C@@H](NC(=O)[C@H](NC(=O)c3cc4cc(O)c(O)cc4oc3=O)c3ccc(O)cc3)[C@H]2SC1 [Example 21, 7β-[D-2-(6,7-Dihydroxy-2-oxo-2H-1-benzopyran-3-carboxamide)-2-(4-hydroxyphenyl)acetamide]-3-(1-carboxymethyl-5-tetrazolyl)thiomethyl-3-cephem-4-carboxylic acid]										> 4000	
CCn1cc(C(=O)N[C@@H](C(=O)N[C@@H]2C(=O)N3C(C(=O)O)=C(CSc4nnc(C)s4)CS[C@H]23)c2ccc(O)cc2)c(=O)c2cc(OC(C)=O)c(O)cc21 [Example 12, 7β-[D-2-(6-Acetoxy-7-hydroxy-1-ethyl-1,4-dihydro-4-oxoquinoline-3-carboxamide)-2-(4-hydroxyphenyl)acetamide]-3-[5-methyl-2-(1,3,4-thiadiazolyl)]thiomethyl-3-cephem-4-carboxylic acid sodium salt]	3.13	0.024	0.2	3.13							
Cn1nnnc1SCC1=C(C(=O)O)N2C(=O)[C@@H](NC(=O)[C@H](NC(=O)c3cc4cc(O)c(O)cc4oc3=O)c3ccc(O)cc3)[C@H]2SC1 [Example 20, 7β-[D-2-(6,7-Dihydroxy-2-oxo-2H-1-benzopyran-3-carboxamide)-2-(4-hydroxyphenyl)acetamide]-3-(1-methyl-5-tetrazolyl)thiomethyl-3-cephem-4-carboxylic acid]					0.8 (≈ 1.17 µM)	0.2 (≈ 0.293 µM)	0.2 (≈ 0.293 µM)	0.8 (≈ 1.17 µM)			
CC1(C)S[C@@H]2[C@H](NC(=O)[C@H](NC(=O)c3cc4ccccc4oc3=O)c3ccccc3)C(=O)N2[C@H]1C(=O)O [D(-)-α-(coumarin-3-carboxamide)benzylpenicillin, reference compound]					12.5 (≈ 24 µM)	12.5 (≈ 24 µM)	1.56 (≈ 2.99 µM)	12.5 (≈ 24 µM)	highest in antibacterial activity		highest in antibacterial activity
CC(=O)Oc1cc2cc(C(=O)N[C@@H](C(=O)N[C@@H]3C(=O)N4[C@@H]3SC(C)(C)[C@@H]4C(=O)O)c3ccccc3)c(=O)oc2cc1OC(C)=O [Example 14, 6β-[D-2-(6,7-Diacetoxy-2-oxo-2H-1-benzopyran-3-carboxamide)-2-phenylacetamide]penicillanic acid]					1.56 (≈ 2.45 µM)	0.2 (≈ 0.314 µM)	0.2 (≈ 0.314 µM)	1.56 (≈ 2.45 µM)			
O=C(O)Cn1nnnc1SCC1=C(C(=O)O)N2C(=O)[C@@H](NC(=O)[C@H](NC(=O)c3cc4cc(O)c(O)cc4sc3=O)c3ccc(O)cc3)[C@H]2SC1 [Example 30]										> 4000	
CC(=O)OCC1=C(C(=O)O)N2C(=O)[C@@H](NC(=O)[C@H](NC(=O)c3cc4ccc(O)c(O)c4oc3=O)c3ccc(O)cc3)[C@H]2SC1 [Example 25, 7β-[D-2-(7,8-Dihydroxy-2-oxo-2H-1-benzopyran-3-carboxamide)-2-(4-hydroxyphenyl)acetamide]-3-acetoxymethyl-3-cephem-4-carboxylic acid]					0.8 (≈ 1.28 µM)	0.1 (≈ 0.16 µM)	0.1 (≈ 0.16 µM)	1.56 (≈ 2.49 µM)			
CC(=O)OCC1=C(C(=O)O)N2C(=O)[C@@H](NC(=O)[C@H](NC(=O)c3cc4cc(OC(C)=O)c(OC(C)=O)cc4n(C)c3=O)c3ccc(O)cc3)[C@H]2SC1 [Example 35, 7β-[D-2-(6,7-Diacetoxy-1-methyl-1,2-dihydro-2-oxoquinoline-3-carboxamide)-2-(4-hydroxyphenyl)acetamide]-3-acetoxymethyl-3-cephem-4-carboxylic acid]					3.13 (≈ 4.33 µM)	0.8 (≈ 1.11 µM)	0.2 (≈ 0.277 µM)	1.56 (≈ 2.16 µM)			
Cc1nnc(SCC2=C(C(=O)O)N3C(=O)[C@@H](NC(=O)[C@H](NC(=O)c4cc5cc(O)c(O)cc5[nH]c4=O)c4ccc(O)cc4)[C@H]3SC2)s1 [Example 34, 7β-[D-2-(6,7-Dihydroxy-1,2-dihydro-2-oxoquinoline-3-carboxamide)-2-(4-hydroxyphenyl)acetamide]-3-[5-methyl-2-(1,3,4-thiadiazolyl)]thiomethyl-3-cephem-4-carboxylic acid]					3.13 (≈ 4.49 µM)	0.4 (≈ 0.574 µM)	0.4 (≈ 0.574 µM)	3.13 (≈ 4.49 µM)			
O=C(O)Cn1nnnc1SCC1=C(C(=O)O)N2C(=O)[C@@H](NC(=O)[C@H](NC(=O)c3csc4cc(O)c(O)cc4c3=O)c3ccc(O)cc3)[C@H]2SC1 [Example 10, 7β-[D-2-(6,7-Dihydroxy-4-oxo-4H-1-benzothiopyran-3-carboxamide)-2-(4-hydroxyphenyl)acetamide]-3-(1-carboxymethyl-5-tetrazolyl)thiomethyl-3-cephem-4-carboxylic acid]	3.13 (≈ 4.22 µM)	≤ 0.012	0.2 (≈ 0.27 µM)	3.13 (≈ 4.22 µM)						> 4000	

Reference: patent publication US4468394A, “Cephalosporin compounds” (Eisai Co., Ltd., priority 1981, dated 1984)
